Results as given in patent US20250066328A1, “PARP7 INHIBITORS” (Gilead Sciences, Inc., priority 2023, published 2025).

Each compound was assayed on STAT1 (phosphorylated at Tyr701) in NCI-H1373 cells (assay: Phospho-STAT1 (Tyr701) LANCE Ultra TR-FRET detection assay in NCI-H1373 cells). Conditions: Homo sapiens, NCI-H1373, 48 h, 48 hours incubation, induction of pSTAT1, normalized to 10 uM positive control and DMSO, 4-parameter fit, read-out: NH1373 pSTAT1 EC50.
Type: cell-based
Method in brief: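 NCI-H1373 cells (30,000/well) incubated 48 h at 37° C on compound, then lysed; phospho-STAT1 Tyr701 measured by sandwich TR-FRET (665/620 nm ratio). Data normalized to DMSO and a 10 uM reference inducer; EC50 from 4-parameter fit.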
With C[C@@H](C[C@@H](O)Cn1ccc2cc(-c3ncc(C(F)(F)F)cn3)c(F)cc2c1=O)Oc1cn[nH]c(=O)c1C(F)(F)F (single isomer, unassigned) [Example 17] the EC50 was 23.3 nM. Work on C[C@@H](C[C@H](F)Cn1ccc2cc(-c3ncc(C(F)F)cn3)c(F)cc2c1=O)Nc1cn[nH]c(=O)c1C(F)(F)F (single isomer, unassigned) [Example 5] yielded an EC50 of 47.6 nM. Compound O=c1[nH]ncc(O[C@H](CCCn2ccc3cc(-c4ncc(C(F)(F)F)cn4)c(F)cc3c2=O)COC(F)F)c1C(F)(F)F (single isomer, unassigned) [Example 119] has an EC50 of 16.1 nM. CC(C)(O)c1cnc(-c2cc3ccn(C[C@H](F)C[C@H](COC(F)F)Oc4cn[nH]c(=O)c4C(F)(F)F)c(=O)c3cc2F)nc1 [Example 122] gave an EC50 of 1.97 nM. C[C@@H](C[C@@H](F)Cn1cc(F)c2cc(-c3ncc(C(C)(C)O)cn3)c(F)cc2c1=O)Oc1cn[nH]c(=O)c1C(F)(F)F (single isomer, unassigned) [Example 56] was tested, and the EC50 was 1.51 nM. Compound COc1cnc(-c2cc3ccn(C[C@H](F)C[C@H](C)Nc4cn[nH]c(=O)c4C(F)(F)F)c(=O)c3cc2F)nc1 (single isomer, unassigned) [Example 6] has an EC50 of 0.809 nM. C[C@@H](CC(F)Cn1cnc2cc(-c3ncc(C(C)(C)O)cn3)c(F)cc2c1=O)Oc1cn[nH]c(=O)c1C(F)(F)F (stereo partly drawn) [Example 38] was tested, and the EC50 was 42.4 nM. Work on C[C@@H](C[C@H](F)Cn1cc(F)c2cc(-c3ncc(C(F)F)cn3)c(F)cc2c1=O)Oc1cn[nH]c(=O)c1C(F)(F)F [Example 62] yielded an EC50 of 1.69 nM. C[C@@H](C[C@@H](F)Cn1ccc2cc(-c3ncc([C@H](F)CF)cn3)c(F)cc2c1=O)Nc1cn[nH]c(=O)c1C(F)(F)F [Example 93] showed an EC50 of 1000 nM. C[C@@H](C[C@H](F)Cn1ccc2cc(-c3ncc(C(F)(F)F)cn3)c(F)cc2c1=O)Oc1cn[nH]c(=O)c1C(F)(F)F [Example 13] gave an EC50 of 1.32 nM. In the case of C[C@@H](C[C@@H](F)Cn1ccc2cc(-c3ncc(C(C)(C)O)cn3)c(F)cc2c1=O)Nc1cn[nH]c(=O)c1C(F)(F)F (single isomer, unassigned) [Example 8], the EC50 is reported as 3.55 nM. COc1cnc(-c2cc3ccn(C[C@H](F)C[C@H](C)Nc4cn[nH]c(=O)c4C(F)(F)F)c(=O)c3c(F)c2F)nc1 [Example 99] showed an EC50 of 1.06 nM. Work on C[C@@H](C[C@@H](F)Cn1cnc2cc(-c3ncc(C(C)(F)F)cn3)c(F)cc2c1=O)Nc1cn[nH]c(=O)c1C(F)(F)F [Example 107] yielded an EC50 of 2.52 nM. C[C@@H](C[C@@H](F)Cn1ccc2cc(-c3ncc(C(F)F)cn3)c(F)cc2c1=O)Nc1cn[nH]c(=O)c1C(F)(F)F (single isomer, unassigned) [Example 4] gave an EC50 of 1.08 nM. With C[C@@H](C[C@@H](F)Cn1ccc2cc(-c3ncc4c(n3)COC4(C)C)c(F)cc2c1=O)Nc1cn[nH]c(=O)c1C(F)(F)F [Example 90] the EC50 was 4.33 nM. Compound COc1cnc(-c2cc3ccn(C[C@@H](F)C[C@H](C)Oc4cn[nH]c(=O)c4C(F)(F)F)c(=O)c3cc2F)nc1N [Example 59] has an EC50 of 1.21 nM. For C[C@@H](C[C@@H](F)Cn1ccc2cc(-c3ncc([C@H](O)C(F)F)cn3)c(F)cc2c1=O)Nc1cn[nH]c(=O)c1C(F)(F)F [Example 81], the EC50 was 5.83 nM. Work on C[C@@H](C[C@@H](F)Cn1cc(Br)c2cc(-c3ncc(C(C)(C)O)cn3)c(F)cc2c1=O)Oc1cn[nH]c(=O)c1C(F)(F)F [Example 68, 4-bromo-7-fluoro-2-((2R,4S)-2-fluoro-4-((6-oxo-5-(trifluoromethyl)-1,6-dihydropyridazin-4-yl)oxy)pentyl)-6-(5-(2-hydroxypropan-2-yl)pyrimidin-2-yl)isoquinolin-1(2H)-one] yielded an EC50 of 3.7 nM.
